According to paper PMC8066157, “Bovine Viral Diarrhea Virus (BVDV): A Preliminary Study on Antiviral Properties of Some Aromatic and Medicinal Plants” (Pathogens, 2021):
“Also recorded” adds a separate entry of the source. Like-named read-outs stand apart in the source and are kept apart here.

Tests used:
MDBK cells = assay: Cytotoxicity in mock-infected MDBK cells (MTT); settings: for CC50: read-out: CC50 MDBK, mock-infected MDBK cells, MTT, pure compounds
BVDV [1] = assay: microbe, parasite or virus in culture; format: cell-based, bovine viral diarrhea virus (strain NADL); settings: read-out: EC50 BVDV
[2] = Cytotoxicity in mock-infected MDBK cells (MTT); settings: bovine (Bos taurus), mock-infected MDBK cells (Madin-Darby bovine kidney)
DENV-2 = format: cell-based, dengue virus (DENV-2)
YFV = format: cell-based, yellow fever virus (strain 17-D)
WNV = format: cell-based, west Nile virus
in vitro [3] = settings: monkey (Cercopithecus aethiops)
RSV = assay: microbe, parasite or virus in culture; format: cell-based, human respiratory syncytial virus (strain A2); settings: human respiratory syncytial virus, Vero 76, read-out: EC50 RSV
in vitro [4] = settings: human
VV = format: cell-based, vaccinia virus
CV-B5 = assay: organism not typed; format: cell-based, coxsackie type B5; settings: Vero 76, read-out: EC50 CV-B5
BVDV [5] = assay: Virucidal assay against BVDV virions; design: species or system bovine viral diarrhea virus; settings: 100 µM, 2 h, 4 and 37 °C
BVDV [6] = format: cell-based, bovine viral diarrhea virus; settings: 100, 20, 4, 0.8 µM
[7] = Bovine viral diarrhea virus isolates and strains, MDBK

Molecule	CC50 (MDBK cells) [µM]	EC50 (BVDV [1]) [µM]	CC50 [2] [µM]	EC50 (BVDV [1]; [7]) [µM]	further results
2+β Thujone	> 100	> 100	–	–	–
CC12CCC(CC1)C(C)(C)O2 [1,8-Cineole]	–	–	> 100	> 100	–
C[C@@]1(O)[C@H](O)[C@@H](CO)O[C@H]1n1cnc2c(=O)[nH]c(N)nc21 [2′-C-Me-Guanosine]	> 100	1.6 ± 0.2	–	–	EC50 (DENV-2): 0.3 µM; EC50 (YFV): 1.2 µM; EC50 (WNV): 0.4 µM; CC50 (BHK cells): 60 µM
O=c1cnn([C@@H]2O[C@H](CO)[C@@H](O)[C@H]2O)c(=O)[nH]1 [6-Aza-Uridine]	–	–	–	–	CC50 (in vitro [3]): 4 µM; EC50 (RSV): 1 µM
C=C1C2CCC(C2)C1(C)C (centres unmarked) [Camphene]	–	–	> 100	> 100	–
CC12CCC(CC1=O)C2(C)C (centres unmarked) [Camphor]	–	–	> 100	> 100	–
O=C1Nc2ccc(Cl)cc2[C@@](C#CC2CC2)(C(F)(F)F)O1 [Efavirenz]	–	–	–	–	CC50 (in vitro [4]): 40 µM
C=C(C)[C@H]1CC=C(C)CC1 [Limonene]	> 100	> 100	–	–	–
COc1c(C)c2c(c(O)c1C/C=C(\C)CCC(=O)O)C(=O)OC2 [Mycophen.Ac.]	–	–	–	–	EC50 (VV): 1.5 µM; CC50 (Vero-76 cells): 20 µM
Cc1cc(CCCOc2c(C)cc(-c3noc(C(F)(F)F)n3)cc2C)on1 [Pleconaril]	–	–	–	–	CC50 (in vitro [3]): > 100 µM; EC50 (CV-B5): 0.005 µM
C=C1CC/C=C(\C)CC[C@@H]2[C@@H]1CC2(C)C [Trans-Caryophyllene]	–	–	> 100	90 ± 1	–
C/C1=C\CC/C(C)=C/CC(C)(C)/C=C/C1 [α-Humulene]	> 100	36 ± 0.5	–	–	Cytotoxicity (in words) (MDBK cells; MDBK cells): non-cytotoxic; Virucidal activity (BVDV titer of treated vs untreated virus) (BVDV [5]): No significant differences; Reduction of BVDV titer (yield reduction) (BVDV [6]): dose-dependent reduction of virus titer; also recorded: reduce the viral BVDV titer in vitro assays in a dose-dependent manner
C=C1CCC2CC1C2(C)C (stereo not drawn) [β-Pinene]	–	–	> 100	> 100	–
